From PubChem BioAssay (NCI)
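These data come from cells grown in 96-well plates and exposed to compound for 48 hours at five concentrations. Abbreviation: GI50, concentration required for 50% inhibition of growth. TGI denotes the concentration required for complete inhibition of growth.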

Legend:
Assay in all cases: NCI anticancer screen, dose series, 48 h
SK-MEL-5 melanoma = system: SK-MEL-5 melanoma
SNB-75 CNS = system: SNB-75 CNS
HOP-62 NSCLC = system: HOP-62 NSCLC
T-47D breast = system: T-47D breast
TK-10 renal = system: TK-10 renal
COLO 205 colon = system: COLO 205 colon
K-562 leukemia = system: K-562 leukemia
KM12 colon = system: KM12 colon
MDA-MB-231 breast = system: MDA-MB-231 breast
CAKI-1 renal = system: CAKI-1 renal
NCI-H226 lung = system: NCI-H226 lung
UACC-257 melanoma = system: UACC-257 melanoma
MDA-MB-468 breast = system: MDA-MB-468 breast
NCI-H522 lung = system: NCI-H522 lung
SN12C renal = system: SN12C renal
M14 melanoma = system: M14 melanoma
SF-539 CNS = system: SF-539 CNS
BT-549 breast = system: BT-549 breast
786-0 renal = system: 786-0 renal
RXF 393 renal = system: RXF 393 renal
NCI-H460 lung = system: NCI-H460 lung
MCF7 breast = system: MCF7 breast
UO-31 renal = system: UO-31 renal
OVCAR-4 ovarian = system: OVCAR-4 ovarian
SW-620 colon = system: SW-620 colon
A549 NSCLC = system: A549 NSCLC
EKVX NSCLC = system: EKVX NSCLC
UACC-62 melanoma = system: UACC-62 melanoma
SF-268 CNS = system: SF-268 CNS
HCC-2998 colon = system: HCC-2998 colon
SK-MEL-28 melanoma = system: SK-MEL-28 melanoma
SK-MEL-2 melanoma = system: SK-MEL-2 melanoma
U251 CNS = system: U251 CNS
SK-OV-3 ovarian = system: SK-OV-3 ovarian
HOP-92 NSCLC = system: HOP-92 NSCLC
A498 renal = system: A498 renal
IGROV1 ovarian = system: IGROV1 ovarian
SNB-19 CNS = system: SNB-19 CNS
HCT-15 colon = system: HCT-15 colon
HL-60(TB) leukemia = system: HL-60(TB) leukemia
LOX IMVI melanoma = system: LOX IMVI melanoma
OVCAR-5 ovarian = system: OVCAR-5 ovarian
ACHN renal = system: ACHN renal
OVCAR-3 ovarian = system: OVCAR-3 ovarian
MDA-MB-435 = system: MDA-MB-435
SR leukemia = system: SR leukemia
PC-3 prostate = system: PC-3 prostate
HS 578T breast = system: HS 578T breast
OVCAR-8 ovarian = system: OVCAR-8 ovarian
SF-295 CNS = system: SF-295 CNS
MALME-3M melanoma = system: MALME-3M melanoma
MOLT-4 leukemia = system: MOLT-4 leukemia
HT29 colon = system: HT29 colon
HCT-116 colon = system: HCT-116 colon
DU-145 prostate = system: DU-145 prostate
RPMI-8226 leukemia = system: RPMI-8226 leukemia
CCRF-CEM leukemia = system: CCRF-CEM leukemia
NCI-H23 lung = system: NCI-H23 lung

## COc1cc(NC(=O)c2cc(-c3ccc(F)cc3F)ccc2O)cc(OC)c1OC
SK-MEL-5 melanoma
  GI50: 3.16 µM
  TGI: 10.6 µM
SNB-75 CNS
  GI50: 6.57 µM
  TGI: 23.8 µM
HOP-62 NSCLC
  GI50: 13.4 µM
  TGI: 33.2 µM
T-47D breast
  GI50: 2730 nM
  TGI: 9.31 µM
TK-10 renal
  GI50: 12 µM
  TGI: 45.4 µM
COLO 205 colon
  GI50: 18.2 µM
  TGI: 34.4 µM
K-562 leukemia
  GI50: 5.1 µM
  TGI: > 100 µM
KM12 colon
  GI50: 10.2 µM
  TGI: 23.3 µM
MDA-MB-231 breast
  GI50: 18.8 µM
  TGI: 51.2 µM
CAKI-1 renal
  GI50: 7.67 µM
  TGI: 38.8 µM
NCI-H226 lung
  GI50: 6.92 µM
  TGI: 30 µM
UACC-257 melanoma
  GI50: 10.2 µM
  TGI: 22.4 µM
MDA-MB-468 breast
  GI50: 3.98 µM
  TGI: 17 µM
NCI-H522 lung
  GI50: 3.19 µM
  TGI: 13.7 µM
SN12C renal
  GI50: 6.12 µM
  TGI: 22.1 µM
M14 melanoma
  GI50: 15.3 µM
  TGI: 31.8 µM
SF-539 CNS
  GI50: 12.4 µM
  TGI: 26.5 µM
BT-549 breast
  GI50: 5.29 µM
  TGI: 22.6 µM
786-0 renal
  GI50: 19.4 µM
  TGI: 46.6 µM
RXF 393 renal
  GI50: 2860 nM
  TGI: 16.8 µM
NCI-H460 lung
  GI50: 6.51 µM
  TGI: 20.2 µM
MCF7 breast
  GI50: 9.64 µM
  TGI: 43.1 µM
UO-31 renal
  GI50: 5.24 µM
  TGI: 23.5 µM
OVCAR-4 ovarian
  GI50: 4.45 µM
  TGI: 31.4 µM
SW-620 colon
  GI50: 14.2 µM
  TGI: 29 µM
A549 NSCLC
  GI50: 12.7 µM
  TGI: 35.1 µM
EKVX NSCLC
  GI50: 12.3 µM
  TGI: 48.3 µM
UACC-62 melanoma
  GI50: 3.52 µM
  TGI: 13.4 µM
SF-268 CNS
  GI50: 6.03 µM
  TGI: 28.3 µM
HCC-2998 colon
  GI50: 11.9 µM
  TGI: 25.4 µM
SK-MEL-28 melanoma
  GI50: 8.98 µM
  TGI: 22.3 µM
SK-MEL-2 melanoma
  GI50: 3.01 µM
  TGI: 13.9 µM
U251 CNS
  GI50: 11 µM
  TGI: 27.1 µM
SK-OV-3 ovarian
  GI50: 8.43 µM
  TGI: 23.9 µM
HOP-92 NSCLC
  GI50: 3.49 µM
  TGI: 15.9 µM
A498 renal
  GI50: 12.1 µM
  TGI: 25.8 µM
IGROV1 ovarian
  GI50: 10.4 µM
  TGI: 30.9 µM
SNB-19 CNS
  GI50: 6.63 µM
  TGI: 29.5 µM
HCT-15 colon
  GI50: 5.63 µM
  TGI: 24.9 µM
HL-60(TB) leukemia
  GI50: 6.09 µM
  TGI: > 100 µM
LOX IMVI melanoma
  GI50: 13 µM
  TGI: 27.3 µM
OVCAR-5 ovarian
  GI50: 19.3 µM
  TGI: 43.4 µM
ACHN renal
  GI50: 16.2 µM
  TGI: 66.3 µM
OVCAR-3 ovarian
  GI50: 5.49 µM
  TGI: 32.4 µM
MDA-MB-435
  GI50: 6.27 µM
  TGI: 19.4 µM
SR leukemia
  GI50: 4.2 µM
  TGI: 40.5 µM
PC-3 prostate
  GI50: 12.5 µM
  TGI: 61.5 µM
HS 578T breast
  GI50: 5.2 µM
  TGI: 26.9 µM
OVCAR-8 ovarian
  GI50: 13 µM
  TGI: > 100 µM
SF-295 CNS
  GI50: 15.6 µM
  TGI: 32.6 µM
MALME-3M melanoma
  GI50: 11.4 µM
  TGI: 25.9 µM
MOLT-4 leukemia
  GI50: 5.9 µM
  TGI: 36.4 µM
HT29 colon
  GI50: 17.9 µM
  TGI: 33.6 µM
HCT-116 colon
  GI50: 13.7 µM
  TGI: 32.2 µM
DU-145 prostate
  GI50: 13.9 µM
  TGI: 39.4 µM
RPMI-8226 leukemia
  GI50: 3.4 µM
  TGI: 45.9 µM
CCRF-CEM leukemia
  GI50: 6.23 µM
  TGI: 29.7 µM
NCI-H23 lung
  GI50: 4.75 µM
  TGI: 18.9 µM
